Assay in all cases: DTP human tumour cell line panel, 48 h
Test [1] concerns SNB-75 CNS.
The test system of test [2] is NCI-H460 lung.
Test [3] deals with EKVX NSCLC.
Test [4] deals with UACC-257 melanoma.
The test system of test [5] is HT29 colon.
The subject of test [6] is LOX IMVI melanoma.
The subject of test [7] is MDA-N.
The test system of test [8] is MDA-MB-435.
Test [9] relates to 786-0 renal.
The test system of test [10] is UO-31 renal.
For test [11], the system named is SK-OV-3 ovarian.
Test [12] relates to OVCAR-8 ovarian.
In test [13] the test system is MOLT-4 leukemia.
The test system of test [14] is TK-10 renal.
In test [15] the test system is OVCAR-3 ovarian.
The test system of test [16] is A549 NSCLC.
The subject of test [17] is MCF7 breast.
The subject of test [18] is HL-60(TB) leukemia.

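Method: 48-hour compound exposure of cells in 96-well plates, five concentrations, linear interpolation of endpoints. At the TGI there is no net growth.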

One may read the TGI as the concentration giving total growth inhibition. Read a low TGI as more potent growth arrest. As for `CC(C)CCc1n[nH]c(=O)n1/N=C\c1ccccc1`, the TGI in test [1], in test [2], in [3], in test [4], in [5] and in [6] was > 100 µM each time. Moreover, the TGI in test [7] was > 100 µM; in test [8] it was > 100 µM; in [9], > 100 µM; in test [10], 86.1 µM; in test [11], > 100 µM; in test [12], > 100 µM. For the same compound, the TGI in test [13], in test [14], in [15] and in [16] was > 100 µM in each case.
As for `C=CCCCC1CCCNC1=S` (stereo not given), the TGI in test [1], in [2], in test [3], in test [4], in [5] and in test [7] was > 100 µM each time. Also, the TGI in [8], in test [9], in [10], in test [11], in test [12] and in test [13] was > 100 µM in each case. In addition, the TGI in [14], in test [17], in test [15] and in [16] was > 100 µM in each case.
In the case of `Cc1ccc(S(=O)(=O)Nn2c(S)c(C#N)c(-c3ccc([N+](=O)[O-])cc3)c(C#N)c2=O)cc1`, the TGI is > 100 µM in test [1]; > 100 µM in [2]; > 100 µM in [3]; > 100 µM in test [4]; > 100 µM in [5]; 28.5 µM in [6]. Also, the TGI in [7] is 73.1 µM; in test [8] it was 53.9 µM; in test [9], 52.2 µM; in test [11], > 100 µM; in test [12], > 100 µM; in test [13] it was 47.7 µM. Further, the TGI in test [14], in [17] and in [16] was > 100 µM each time.
On to `Cc1ccc(-c2c(C#N)c(N)nc3c2CCS(=O)(=O)c2ccccc2-3)cc1`, for which the TGI in test [1] is 78.9 µM; in test [2] it was > 100 µM; in test [4] it was > 100 µM; in test [5] it was > 100 µM; in [6], > 100 µM; in [7] it was > 100 µM. Besides, the TGI in test [8], in [9], in test [10], in test [12], in [14] and in [16] was > 100 µM each time.
For `O=C(Cc1ccccc1)NNc1nc(NNC(=O)c2ccncc2)nc(Nc2cccc(Cl)c2)n1`, the TGI in test [1], in [2], in test [3], in [4], in test [5] and in test [6] was > 10 µM each time. Besides, the TGI in test [7], in test [9], in test [11], in [18], in test [12] and in test [13] was > 10 µM in each case. The TGI in [14], in test [17] and in test [16] was > 10 µM in each case.
With `CCOC(=O)C1(C/C=C\CBr)CCCCCCCCCCC1=O` (stereo not given), the TGI is 26.9 µM in [1]; 33 µM in test [2]; 34.4 µM in [3]; 31.3 µM in test [4]; 34.3 µM in test [5]; 1.66 µM in test [6]. Also, the TGI in test [7] was 38.4 µM; in [8], 29.8 µM; in test [9] it was > 53 µM; in test [10], 15.2 µM; in [11] it was 31.2 µM; in test [12] it was 31.4 µM. In addition, the TGI in test [13] is > 27 µM; in test [14], 22.8 µM; in test [17], 42.3 µM; in test [15], 9.75 µM; in test [16] it was > 53 µM.
Consider `NC(CCC(=O)O)(CCC(=O)O)CCC(=O)O`, for which the total growth inhibition concentration (TGI) in test [1], in test [2], in test [3], in [4], in test [5] and in [7] was > 100 µM in each case. The TGI in [8], in test [9], in test [10], in test [11], in test [12] and in test [13] was > 100 µM throughout. The TGI in test [14], in [17] and in [16] was > 100 µM in each case.
Consider `CC1(C)OC(=O)C2(O1)C(=O)C1CCCCC12` (stereo not given), for which the TGI in [3], in test [4], in test [5], in [7], in test [8] and in [9] was > 100 µM in each case. Also, the total growth inhibition concentration (TGI) in test [10], in test [11], in test [12], in test [13], in test [14] and in test [17] was > 100 µM throughout. The TGI in [15] and in test [16] was > 100 µM each time.
As for `CC(=O)N1N(c2ccc([N+](=O)[O-])cc2)C(=O)C1(C)C`, the TGI was 37.7 µM in test [1]; > 100 µM in [2]; 34.5 µM in [3]; 44.8 µM in test [5]; 26.5 µM in test [6]; > 100 µM in [7]. The TGI in test [8] is 63.1 µM; in test [9], 36.6 µM; in test [10], 32.4 µM; in test [11] it was > 100 µM; in test [12], 59 µM; in [13], 43.4 µM. Further, the TGI was found to be 36.2 µM in test [14], 42.5 µM in [17] and 40.5 µM in [15].

Source of the values: PubChem BioAssay (NCI).
